Reference: patent US20160222014A1, “COMPOUNDS FOR REGULATING FAK AND/OR SRC PATHWAYS” (ASANA BIOSCIENCES, LLC, priority 2013, published 2016)

Tests used:
Type in all cases: biochemical
Recombinant Src enzyme = molecular target: T1, Recombinant Src enzyme (Homo sapiens, UniProt P12931); assay: Src HTRF assay
T1 construct: purchased Millipore 14-326; host or cells: Sf21 insect cells
Procedure: Enzyme assay buffer, supplements, and compounds were prepared as described in the FAK HTRF assay.
Recombinant Src enzyme expressed in Sf21 insect cells was obtained (Millipore, Cat No. 14-326, Lot # D8CN006U-K). A 35 μM stock was used at a final concentration of 5 nM in the assay.
Tyk2 synthetic peptide-Biotinylated-N-terminal tag-[…]
A custom made substrate, a Tyk2 synthetic peptide, biotinylated with an N-terminal tag was obtained (Biopeptide and Sigma, Cat. No. 14918001 VC80021). A 100 μM stock was used at a final concentration of 0.5 μM in the assay.
A 10 mM stock in 100 μL enzyme assay buffer pH7.4 was prepared freshly and used at a final concentration of 10 μM in the assay.
Dasatinib (Bristol-Myers Squibb)
The assay procedure was the same as discussed above.

recombinant human FAK1 = molecular target: T2, recombinant human FAK1 (Homo sapiens, UniProt Q05397); assay: FAK1 HTRF assay
T2 construct: fused on or other part: N-terminal 6xHis tag
T2 sequence (Q05397 422-680 limits assumed): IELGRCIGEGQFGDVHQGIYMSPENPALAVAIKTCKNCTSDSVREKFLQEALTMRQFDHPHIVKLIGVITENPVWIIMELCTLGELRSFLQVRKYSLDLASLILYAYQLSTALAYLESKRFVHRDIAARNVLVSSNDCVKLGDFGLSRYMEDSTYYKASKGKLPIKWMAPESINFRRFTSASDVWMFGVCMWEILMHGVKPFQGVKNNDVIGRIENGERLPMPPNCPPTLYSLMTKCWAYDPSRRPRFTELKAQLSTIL
Outline: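 His-tagged human FAK1 (residues 692–end, Sf9-expressed), 10 nM final, with 0.5 μM biotinylated gastrin-precursor Tyr87 peptide and a 10 μM final reagent in pH 7.4 buffer, 45 min at rt. Detection used Eu anti-pTyr antibody plus SA-APC (665/620 nm). Compounds top concentration 10 μM; IC50 from % inhibition.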

AURKB (Aurora B) enzyme = molecular target: T3, AURKB (Aurora B) enzyme (Homo sapiens, UniProt Q96GD4); assay: Aurora B HTRF assay; conditions: read-out: AuroraB IC50
T3 construct: purchased Invitrogen PVR 130
T3 sequence (Q96GD4 whole entry): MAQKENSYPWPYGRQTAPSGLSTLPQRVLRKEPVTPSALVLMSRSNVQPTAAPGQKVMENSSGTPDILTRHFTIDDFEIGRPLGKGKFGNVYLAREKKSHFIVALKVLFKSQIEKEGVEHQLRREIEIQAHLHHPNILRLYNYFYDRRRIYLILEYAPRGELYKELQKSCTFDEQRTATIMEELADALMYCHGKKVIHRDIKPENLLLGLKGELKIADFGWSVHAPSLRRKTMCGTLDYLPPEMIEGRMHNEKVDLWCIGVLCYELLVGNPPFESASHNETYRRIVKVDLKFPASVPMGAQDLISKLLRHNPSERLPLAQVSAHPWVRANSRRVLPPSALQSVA
Procedure: AURKB (Aurora B) enzyme was obtained (Invitrogen, Cat No. PVR 130, Lot No. 857013J). A 8.64 μM stock was used at a final concentration 5 nM in the assay.
Lance@Ultera Ulight-PLK (Ser137) peptide substrate
Peptide substrate was obtained from Perkin Elmer (Lot#1629793, TRF0110-M). A 5 μM stock was used at a final concentration of 50 nM in the assay.
10 mM stock prepared freshly as above, used at a final concentration of 30 μM in assay.
The plate was covered with aluminum foil, put on a shaker and incubated 1 h at rt.
Reference: Pfizer aurora inhibitor PF-03814735 was procured from Selleckchem: Cat# S2725
Using stock Lance detection buffer, 1× Lance detection buffer was prepared. • 1. 10× lance detection buffer was diluted to 1×, mixed well and 100 μL was removed, and was used to substitute with antibody and EDTA (for a total of 2200 μL). • 2. 88 μL of […] EDTA was added from 500 mM stock. • 3. 14 μL Europium labeled antibody (LANCE@ Ultra EU-Anti-P-PLK(Ser 137), TRF0203-D, Lot No. 1630351, Perkin Elmer) was added from 625 nM stock; required concentration was 2 nM in the assay. • 4. The buffer well was mixed and 20 μL was transferred to the each well in the assay plate. • 5. The solutions were incubated for 1 h at rt. • 6. The plate was read using MET-HTRF® protocol using Pherastar equipment.

T1 sequence (P12931 whole entry): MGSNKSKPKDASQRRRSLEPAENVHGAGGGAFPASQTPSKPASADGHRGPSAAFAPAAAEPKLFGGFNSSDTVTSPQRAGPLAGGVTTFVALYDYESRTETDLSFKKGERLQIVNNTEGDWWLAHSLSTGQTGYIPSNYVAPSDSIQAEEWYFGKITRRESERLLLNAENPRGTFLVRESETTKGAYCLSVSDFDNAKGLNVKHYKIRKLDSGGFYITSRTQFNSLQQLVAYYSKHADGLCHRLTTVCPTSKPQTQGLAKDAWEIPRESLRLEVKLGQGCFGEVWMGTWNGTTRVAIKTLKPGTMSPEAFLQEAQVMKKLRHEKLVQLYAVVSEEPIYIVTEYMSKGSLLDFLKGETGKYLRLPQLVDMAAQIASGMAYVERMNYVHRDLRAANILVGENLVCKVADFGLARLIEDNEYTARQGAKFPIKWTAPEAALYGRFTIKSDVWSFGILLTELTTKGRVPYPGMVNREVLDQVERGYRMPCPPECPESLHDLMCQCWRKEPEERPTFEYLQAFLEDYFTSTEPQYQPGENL

| IC50 (Recombinant Src enzyme) | IC50 (recombinant human FAK1) | IC50 (AURKB (Aurora B) enzyme) | Compound |
| --- | --- | --- | --- |
| – | < 20 nM | < 20 nM | N#Cc1ccccc1S(=O)(=O)n1ccc2cnc(Nc3ccc(N4CCN(CCO)CC4)cc3)cc21 [Example 413] |
| – | < 20 nM | < 20 nM | CN(c1ccccc1Cn1ccc2cnc(Nc3ccc(N4CCN(CCO)CC4)cc3)nc21)S(C)(=O)=O [Example 423] |
| – | < 20 nM | < 20 nM | COc1cc(Nc2ncc3ccn(S(=O)(=O)c4cccc5cccnc45)c3n2)ccc1N1CCN(C)CC1 [Example 427] |
| – | < 20 nM | < 20 nM | CN1CCN(c2ccc(Nc3ncc4ccn(Cc5ccccc5N(C)S(C)(=O)=O)c4n3)cc2)CC1 [Example 428] |
| – | < 20 nM | < 20 nM | COc1cc(Nc2ncc3ccn(S(=O)(=O)c4cccc5cccnc45)c3n2)ccc1N1CCN(CCO)CC1 [Example 431] |
| – | < 20 nM | < 20 nM | O=S(=O)(c1cccc2cccnc12)n1ccc2cnc(Nc3ccc(N4CCC(CO)CC4)cc3)nc21 [Example 440] |
| – | < 20 nM | < 20 nM | CN(C)C1CCN(c2ccc(Nc3ncc4ccn(S(=O)(=O)c5cccc6cccnc56)c4n3)cc2)CC1 [Example 462] |
| – | < 20 nM | < 20 nM | C[C@H]1CN(c2ccc(Nc3cc4c(ccn4S(=O)(=O)c4ccccc4C#N)cn3)cc2)CCN1 [Example 472] |
| – | < 20 nM | < 20 nM | C[C@H]1CNCCN1c1ccc(Nc2cc3c(ccn3S(=O)(=O)c3cccc4cccnc34)cn2)cc1 [Example 478] |
| – | < 20 nM | < 20 nM | C[C@@H]1CNCCN1c1ccc(Nc2cc3c(ccn3S(=O)(=O)c3cccc4cccnc34)cn2)cc1 [Example 480] |
| – | < 20 nM | < 20 nM | CN(C)C1CCN(c2ccc(Nc3cc4c(ccn4S(=O)(=O)c4ccccc4C#N)cn3)cc2)CC1 [Example 485] |
| – | < 20 nM | < 20 nM | C[C@@H]1CNCCN1c1ccc(Nc2ncc3ccn(S(=O)(=O)c4cccc5cccnc45)c3n2)cc1 [Example 490] |
| – | < 20 nM | < 20 nM | CC1(C)CN(S(=O)(=O)c2cccc3cccnc23)c2nc(Nc3ccc4c(c3)CCC(=O)N4)ncc21 [Example 545] |
| – | < 20 nM | < 20 nM | CS(=O)(=O)Nc1ccccc1Cn1ccc2cnc(Nc3ccc4c(c3)CCC(=O)N4)nc21 [Example 595] |
| – | < 20 nM | < 20 nM | CN(c1ccccc1Cn1ccc2cnc(Nc3ccc(N4CCNC(C)(C)C4)cc3)nc21)S(C)(=O)=O [Example 606] |
| – | < 20 nM | < 20 nM | CS(=O)(=O)Nc1ccccc1Cn1ccc2cnc(Nc3ccc4c(c3)OCC(=O)N4)nc21 [Example 618] |
| – | < 20 nM | < 20 nM | C[C@H](O)CN1CCN(c2ccc(Nc3ncc4ccn(Cc5ccccc5N(C)S(C)(=O)=O)c4n3)cc2)CC1 [Example 632] |
| – | < 20 nM | < 20 nM | CN(c1ccccc1Cn1ccc2cnc(Nc3ccc(N4CCN(CC(=O)O)CC4)cc3)nc21)S(C)(=O)=O [Example 662] |
| – | < 20 nM | < 20 nM | C[C@@H](O)CN1CCN(c2ccc(Nc3ncc4ccn(Cc5ccccc5N(C)S(C)(=O)=O)c4n3)cc2)CC1 [Example 665] |
| – | < 20 nM | < 20 nM | COc1ccc(N(C)S(C)(=O)=O)c(Cn2ccc3cnc(Nc4ccc(N5CCN[C@@H](C)C5)cc4)nc32)c1 [Example 675] |
| – | < 20 nM | < 20 nM | COc1ccc(N(C)S(C)(=O)=O)c(Cn2ccc3cnc(Nc4ccc5c(c4)CC(=O)N5)nc32)c1 [Example 691] |
| – | < 20 nM | < 20 nM | C[C@H](O)CN1CCN(c2ccc(Nc3ncc4ccn(Cc5ccccc5N(C)S(C)(=O)=O)c4n3)cc2)C[C@@H]1C [Example 695, N-(2-((2-((4-((S)-4-((S)-2-hydroxypropyl)-3-methylpiperazin-1-yl)phenyl)amino)-7H-pyrrolo[2,3-d]pyrimidin-7-yl)methyl)phenyl)-N-methylmethanesulfonamide] |
| – | < 20 nM | < 20 nM | CN1CCC(NC(=O)c2ccc(Nc3ncc4ccn(Cc5ccccc5N(C)S(C)(=O)=O)c4n3)cc2)CC1 [Example 777] |
| – | < 20 nM | < 20 nM | Cc1ccc(N(C)S(C)(=O)=O)c(Cn2ccc3cnc(Nc4ccc(N5CCC(N(C)C)CC5)c(C)c4)nc32)c1 [Example 780] |

More lines, now with the values behind:

| Compound | IC50 (Recombinant Src enzyme) | IC50 (recombinant human FAK1) | IC50 (AURKB (Aurora B) enzyme) |
| --- | --- | --- | --- |
| CC(=O)Nc1cccc(Nc2ncc3ccn(S(=O)(=O)c4ccc(C)cc4)c3n2)c1 [Example 39] | > 1000 nM | – | – |
| CC(=O)Nc1cccc(Nc2ncc3ccn(S(=O)(=O)c4cccc(OC(F)(F)F)c4)c3n2)c1 [Example 40] | > 1000 nM | – | – |
| O=C1CCc2cc(Nc3cc4c(ccn4S(=O)(=O)c4cccc(OC(F)(F)F)c4)cn3)ccc2N1 [Example 56] | > 1000 nM | – | – |
| CC(=O)Nc1ccc(Nc2cc3c(ccn3Cc3ccccc3OC(F)F)cn2)cc1 [Example 97] | > 1000 nM | – | – |
| CC(=O)Nc1cccc(Nc2cc3c(ccn3Cc3ccccc3OC(F)F)cn2)c1 [Example 98] | > 1000 nM | – | – |
| COc1ccccc1S(=O)(=O)n1ccc2cnc(Nc3cccc(NC(C)=O)c3)nc21 [Example 104] | > 1000 nM | – | – |
| CC(C)(O)C(=O)Nc1cccc(Nc2ncc3ccn(S(=O)(=O)c4ccccc4OC(F)(F)F)c3n2)c1 [Example 110] | > 1000 nM | – | – |
| O=S(=O)(c1ccccc1OC(F)(F)F)n1ccc2cnc(Nc3ccc(N4CCOCC4)cc3)nc21 [Example 112] | > 1000 nM | – | – |
| COc1ccccc1S(=O)(=O)n1ncc2cnc(Nc3ccc4c(c3)CCC(=O)N4)cc21 [Example 130] | > 1000 nM | – | – |
| COc1ccccc1S(=O)(=O)n1ncc2cnc(Nc3ccc4ncsc4c3)cc21 [Example 132] | > 1000 nM | – | – |
| CN(c1ncccc1Cn1ccc2cnc(Nc3ccncc3)nc21)S(C)(=O)=O [Example 138] | > 1000 nM | – | – |
| CN(c1cccc(Cn2ccc3cnc(Nc4ccc5c(c4)CCC(=O)N5)nc32)n1)S(C)(=O)=O [Example 141] | > 1000 nM | – | – |
| COc1ccccc1S(=O)(=O)n1ccc2cnc(Nc3cccnc3)nc21 [Example 143] | > 1000 nM | – | – |
| COc1ccccc1S(=O)(=O)n1ccc2cnc(Nc3ccncc3)nc21 [Example 144] | > 1000 nM | – | – |
| Cc1ccccc1Nc1ncc2ccn(Cc3cccnc3N(C)S(C)(=O)=O)c2n1 [Example 148] | > 1000 nM | – | – |
| CN(c1ncccc1Cn1ccc2cnc(Nc3ccccc3F)nc21)S(C)(=O)=O [Example 155] | > 1000 nM | – | – |
| CN(c1ncccc1Cn1ccc2cnc(Nc3c(F)cccc3F)nc21)S(C)(=O)=O [Example 167] | > 1000 nM | – | – |
| CN(c1ncccc1Cn1ccc2cnc(Nc3cccc(-c4nnn[nH]4)c3)nc21)S(C)(=O)=O [Example 188] | > 1000 nM | – | – |
| CC(=O)Nc1ccc(S(=O)(=O)n2ccc3cnc(Nc4ccc5c(c4)CCC(=O)N5)nc32)cc1 [Example 192] | > 1000 nM | – | – |
| O=C1CCc2cc(Nc3ncc4ccn(S(=O)(=O)c5ccc6ncsc6c5)c4n3)ccc2N1 [Example 226] | > 1000 nM | – | – |
| O=S(=O)(c1ccc2ncsc2c1)n1ccc2cnc(Nc3ccc(N4CCNCC4)cc3)nc21 [Example 234] | > 1000 nM | – | – |
| CN(c1ncccc1Cn1ncc2cnc(Nc3ccc(N4CCNCC4)cc3)nc21)S(C)(=O)=O [Example 241] | < 20 nM | – | – |
| O=C1Cc2cc(Nc3cc4c(cn3)cnn4S(=O)(=O)c3cccc4cccnc34)ccc2N1 [Example 354] | > 1000 nM | – | – |
| O=S(=O)(c1cccc2cccnc12)n1ccc2cnc(Nc3ccc(N4CCNCC4)cc3CO)cc21 [Example 361] | > 1000 nM | – | – |
| O=S(=O)(c1cccc2cccnc12)n1ccc2cnc(Nc3ccc(N4CCNCC4)cc3CO)nc21 [Example 363] | > 1000 nM | – | – |
| COc1cc(Nc2cc3c(ccn3Cc3cccnc3N(C)S(C)(=O)=O)cn2)ccc1N1CCNCC1 [Example 364] | > 1000 nM | – | – |
| COc1c(Nc2ncc3ccn(S(=O)(=O)c4cccc5cccnc45)c3n2)ccc(N2CCNCC2)c1F [Example 370] | > 1000 nM | – | – |
| O=C(Nc1ccc(Nc2cc3c(cn2)cnn3S(=O)(=O)c2cccc3cccnc23)cc1)C1CC1 [Example 375] | > 1000 nM | – | – |
| COc1cc(N2CCNCC2)ccc1Nc1cc2c(ccn2S(=O)(=O)c2cccc3ccc(C)nc23)cn1 [Example 382] | > 1000 nM | – | – |
| CN1CC2CC1CN2c1ccc(Nc2ncc3ccn(S(=O)(=O)c4cccc5cccnc45)c3n2)cc1 (stereo not shown) [Example 410] | – | < 20 nM | < 20 nM |
